What was measured:
Type in all cases: in vivo, rat
Male Sprague-Dawley rats [1] = assay: Rapid Insulin Sensitivity Test (RIST); details: for RIST index: TAA rats (TAA 200 mg.kg-1 i.p. 24 h before), control RIST, treatments i.p. 1 h post TAA; for RIST index post atropine: TAA rats, second RIST after atropine 0.1 mg.kg-1 i.v. (HISS-independent component)
Procedure: Surgical Preparation. Male Sprague-Dawley rats weighing 260-300 g from the University of Manitoba colony were maintained in the animal house under controlled conditions (22±1° C., 12 h light/12 h dark cycle). They were fed a standard rat chow diet with free access to water. All rats underwent a fasting period of 8 h and a refeeding phase of 2 h immediately before the start of surgical preparation. As HISS is only released in the fed state, the fasting-refeeding protocol assured a high level of HISS release in response to insulin. The rats were anaesthetized with an intraperitoneal injection of sodium pentobarbital (65 mg kg-1; Somnotol, MTC Pharmaceuticals, Ont). Maintained anesthesia was achieved throughout the experiment by a continuous infusion of pentobarbital sodium (0.5 mg.ml-1 saline given at 50 μl.min-1) through a cannula in the jugular vein, supplemented with a 0.65 mg (0.01 ml) bolus injection when required. The rats were placed on a temperature-controlled surgical table (Harvard Apparatus, Kent, England) and rectal temperature was monitored and held at 37-37.5° C. Spontaneous respiration was allowed through a tracheal tube.
An arterial-venous shunt was established, as previous described (Lautt W W et al. Can J Physiol Pharmacol. 1998; 76(12): 1080-6.), for monitoring mean arterial blood pressure (MAP), blood glucose level and for drug delivery. Briefly, two catheters (polyethylene tubing PE60), one inserted into the right femoral artery and the other into the right femoral vein, were connected to the two openings of a three way vascular circuit consisting of a T tube connected with silicon tubing. The third opening of the circuit was connected to a pressure transducer for the recording of the shunt pressure which, when the silicon tubing toward the venous side of the circuit was closed by clamping, represented the systemic arterial blood pressure. Blood samples were taken from the arterial side of the shunt for the glucose measurement. Flowing blood within the shunt assures the real time measurement of the blood glucose concentration, which is essential for the euglycemic clamp test as mentioned below. An infusion line was inserted into the venous side of the loop for drug delivery. Another infusion line connected to the jugular vein was established for glucose infusion. Animals were heparinized (100 IU.kg-1) to prevent clotting in the vascular loop.
Rapid Insulin Sensitivity Test (RIST). The RIST was performed as previously described (Lautt W W et al. Can J Physiol Pharmacol. 1998; 76(12): 1080-6.). Briefly, following completion of surgery, animals were allowed a 30-min stabilization period. The baseline glucose levels were then determined by samples taken at 5-min intervals and continued until three successive stable determinations were made. The mean of these three data points is regarded as the baseline for the RIST. To perform the RIST, human insulin (50mU.kg-1 in 0.5 ml saline) was infused into the femoral vein at the rate of 0.1 ml.min-1 for 5-min. After 1-min of insulin infusion, the first test glucose sample was determined and a variable glucose infusion (10%) was initiated. Blood samples were taken every 2-min and the glucose infusion rate was adjusted accordingly to maintain euglycemia. The RIST index is the amount of glucose (mg.kg-1) infused, to maintain euglycemia, over the test period that terminated when no further glucose infusion was required (approximately 30 min). At the end of a RIST, the animal is at its pretest glycemic level.
(§1) Animal groups. Six groups of animals were established under the following treatments: (1): Normal control rats, treated with saline and corn oil injection at the dose of 2 and 1 ml.kg-1, respectively, n=12. (2): Normal rats, treated with Vitamin C, Vitamin E and SAMe, n=8. The dose for Vitamin C and Vitamin E were 100 and 200 mg.kg-1, respectively; for SAMe was 25 mg.kg-1. […]

Male Sprague-Dawley rats [2] = assay: Liver histopathological examination; details: TAA rats; for Bridging Necrosis / Necrosis: score 0-3; for Inflammation: score 0-3 (normal-0, mild-1, moderate-2, severe-3), mean of 5 fields
Procedure: Six groups of animals were established under the following treatments: (1): Normal control rats, treated with saline and corn oil injection at the dose of 2 and 1 ml.kg-1, respectively, n=12. (2): Normal rats, treated with Vitamin C, Vitamin E and SAMe, n=8. The dose for Vitamin C and Vitamin E were 100 and 200 mg.kg-1, respectively; for SAMe was 25 mg.kg-1. (3): Thioacetaminde (TAA) rats, given with intraperitoneal injection of TAA at the dose of 200 mg.kg-1, n=9. (4): TAA rats treated with Vitamin C+Vitamin E, n=11. (5): TAA rats with SAMe treatment, n=7. (6): TAA rats treated with Vitamin C+Vitamin E+SAMe, n=8. All compounds were administered by intraperitoneal injection (i. p.). TAA was administered 24 h before the start of surgery, and all treatment with vitamins and SAMe were given 1 h post TAA administration.
The left liver lobe was excised and embedded in paraffin, sliced 7 μm in thickness, and stained with hematoxylin-eosin. The tissue slices were then analyzed with light microscopy. Histopathological analysis of the injured area was performed with a computerized video-imaging system (Image-Pro Plus. Media Cybernetics, Md., USA) by a pathologist (Y.F.) who was not aware of sample assignment to experimental group. The degree of injury, including inflammation, necrosis and bridging necrosis, was expressed as the mean of 5 different fields for each slide scaled as 0-3: normal-0, mild-1, moderate-2 and severe-3.

Male Sprague-Dawley rats [3] = assay: Hepatic enzymes analysis (serum ALT and AST); details: TAA rats; effect on TAA-induced increases
Procedure: as §1, with “mg.kg-1. (3): Thioacetaminde (TAA) rats, given with intraperitoneal injection of TAA at the dose of 200 mg.kg-1, n=9. (4): TAA rats treated with Vitamin C+Vitamin E, n=11. (5): TAA rats with SAMe treatment, n=7. (6): TAA rats treated with Vitamin C+Vitamin E+SAMe, n=8. All compounds were administered by intraperitoneal injection (i. p.).” for “mg.kg-1.”
Protocol. […] Following the establishment of glucose baseline, the first RIST index was determined and this was regarded as the control RIST. […] The percentage contribution of HISS-dependent component to total insulin sensitivity was calculated as: % HISS=(RIST index in control−RIST index after atropine)/RIST index in control. […]
Hepatic enzymes analysis. Serum samples from rats in groups 1 to 6 were analyzed for alanine aminotransferase (ALT) and aspartate aminotransferase (AST) activities spectrophotometrically utilizing an Abbott analyzer and Diagnostic Chemicals Limited assay reagents (Charlottetown, P.E.I, Canada).

CN1[C@@H]2CC[C@H]1C[C@@H](OC(=O)C(CO)c1ccccc1)C2 (stereo partly shown) [Atropine, atropine]
inhibition at 0.1 mg/kg (Male Sprague-Dawley rats [1]; Rattus norvegicus, read-out: inhibition of insulin sensitivity): 50 ± 2.1%
RIST index after atropine (Male Sprague-Dawley rats [1]; normal rats, atropine 0.1 mg.kg^−1): 82.7 ± 3.2 mg/kg

C[S+](CC[C@H](N)C(=O)O)C[C@H]1O[C@@H](n2cnc3c(N)ncnc32)[C@H](O)[C@@H]1O (stereo partly shown) [SAMe, S-adenosylmethionine]
histological injury of liver (Male Sprague-Dawley rats [2]): slight reduction in histological injury
Bridging Necrosis (Male Sprague-Dawley rats [2]): 0.09 ± 0.09
Necrosis (Male Sprague-Dawley rats [2]): 1.79 ± 0.15 #
Inflammation (Male Sprague-Dawley rats [2]): 0.93 ± 0.13
RIST index (Male Sprague-Dawley rats [1]): 88.0 ± 4.1 mg/kg
RIST index post atropine (Male Sprague-Dawley rats [1]): 72.1 ± 3.5 mg/kg
Serum ALT and AST activities (Male Sprague-Dawley rats [3]): did not prevent

CC(=N)S [TAA, thioacetamide]
histological injury of liver (Male Sprague-Dawley rats [2]): massive hepatocytic necrosis
Bridging Necrosis (Male Sprague-Dawley rats [2]): 1.17 ± 0.36
Necrosis (Male Sprague-Dawley rats [2]): 2.33 ± 0.17
Inflammation (Male Sprague-Dawley rats [2]): 1.50 ± 0.22
RIST index (Male Sprague-Dawley rats [1]): 75.5 ± 2.8 mg/kg
RIST index post atropine (Male Sprague-Dawley rats [1]): 69.0 ± 2.1 mg/kg
Serum ALT and AST activities (Male Sprague-Dawley rats [3]): significant increase

— patent US8716260B2, “Use of S-adenosylmethionine, vitamin E, and vitamin C for the treatment of oxidative liver injury” (University of Manitoba, priority 2005, dated 2014)
